Test results from patent publication US6610675B1 (priority 1980, dated 2003).

How the values were obtained:
thymus weight in rats = experiment: Thymus inhibition testing (subcutaneous administration); format: in vivo, rat; settings: three days
Protocol: Several further studies were undertaken to determine the effects of selected compounds of the invention on thymi weights in rats when the drugs were systemically administered. In each of these studies, male Sprague-Dawley rats were used. […] On the fifth day (48 hours following the last treatment), the animals were sacrificed and the thymi weights were recorded. […] It is evident that the higher the inhibition of thymus activity at a given dose, the more toxic the compound is.

[1] = tested on: granulation tissue formation caused by implantation of cotton pellets; experiment: Granuloma formation test (local cotton pellet granuloma assay); format: in vivo, rat
Protocol: The test compound was dissolved in acetone and aliquots of varying concentrations were injected into cotton pellets. The pellets were dried and then one pellet was implanted beneath the skin of each test rat. Six days later, the animals were sacrificed and the granulation tissue (granuloma) which formed in and around the implanted pellet was removed, dried and weighed. In addition, the thymi and adrenals were removed and weighed.

[2] = chloromethyl 11β-hydroxy-17α-isopropoxycarbonyloxyandrost-4-en-3-one-17β-carboxylate = 1

CCOC(=O)O[C@]1(C(=O)OCCl)[C@@H](C)C[C@H]2[C@@H]3CCC4=CC(=O)C=C[C@]4(C)[C@@]3(F)[C@@H](O)C[C@@]21C [chloromethyl 17α-ethoxycarbonyloxy-9α-fluoro-11β-hydroxy-16β-methylandrosta-1,4-dien-3-one-17β-carboxylate]
Body weight gain (thymus weight in rats; Table VIII, 10 mg/kg/day s.c.): 2.4 ± 1.8 g | Thymus wt. (thymus weight in rats; Table VIII, 10 mg/kg/day s.c.): 266 ± 20 mg | Thymus wt. Inhibition (thymus weight in rats; Table VIII, 10 mg/kg/day s.c.): 51.6% | Body wt. gain ([1]; Table V-a, 0.3 μg/pellet): 32.5 ± 1.1 g | Granulation tissue Dry wt. ([1]; Table V-a, 0.3 μg/pellet): 61.8 ± 5.7 mg | Granulation tissue Dry wt. Inhibition ([1]; Table V-a, 0.3 μg/pellet): 22.8% | Granulation tissue Wet wt. ([1]; Table V-a, 0.3 μg/pellet): 499 ± 36 mg | Granulation tissue Wet wt. Inhibition ([1]; Table V-a, 0.3 μg/pellet): 5.0% | Thymus wt. ([1]; Table V-a, 0.3 μg/pellet): 501 ± 29 mg | Body wt. gain ([1]; Table V-a, 1 μg/pellet): 36.3 ± 0.9 g | Granulation tissue Dry wt. ([1]; Table V-a, 1 μg/pellet): 57.0 ± 6.2 mg | Granulation tissue Dry wt. Inhibition ([1]; Table V-a, 1 μg/pellet): 28.8% | Granulation tissue Wet wt. ([1]; Table V-a, 1 μg/pellet): 437 ± 24 mg | Granulation tissue Wet wt. Inhibition ([1]; Table V-a, 1 μg/pellet): 16.8% | Thymus wt. ([1]; Table V-a, 1 μg/pellet): 566 ± 31 mg | Body wt. gain ([1]; Table V-a, 3 μg/pellet): 33.8 ± 1.3 g | Granulation tissue Dry wt. ([1]; Table V-a, 3 μg/pellet): 47.5 ± 5.0 mg | Granulation tissue Dry wt. Inhibition ([1]; Table V-a, 3 μg/pellet): 40.7% | Granulation tissue Wet wt. ([1]; Table V-a, 3 μg/pellet): 422 ± 32 mg | Granulation tissue Wet wt. Inhibition ([1]; Table V-a, 3 μg/pellet): 19.6% | Thymus wt. ([1]; Table V-a, 3 μg/pellet): 500 ± 27 mg | Body wt. gain ([1]; Table V-a, 10 μg/pellet): 31.1 ± 1.7 g | Granulation tissue Dry wt. ([1]; Table V-a, 10 μg/pellet): 34.8 ± 5.5 mg | Granulation tissue Dry wt. Inhibition ([1]; Table V-a, 10 μg/pellet): 56.6% | Granulation tissue Wet wt. ([1]; Table V-a, 10 μg/pellet): 370 ± 21 mg | Granulation tissue Wet wt. Inhibition ([1]; Table V-a, 10 μg/pellet): 29.5% | Thymus wt. ([1]; Table V-a, 10 μg/pellet): 421 ± 30 mg | Relative potency (ED40) [1, 2]: 133 | Relative potency (ED60) [1, 2]: 38 | ED40 ([1]; dose causing 40% inhibition of granulation tissue weight): 2.31 μg/pellet | ED50 ([1]; dose causing 50% inhibition of granulation tissue weight): 6.45 μg/pellet | ED60 ([1]; dose causing 60% inhibition of granulation tissue weight): 18.01 μg/pellet

CC(C)OC(=O)O[C@]1(C(=O)OCCl)[C@H](C)C[C@H]2[C@@H]3CCC4=CC(=O)C=C[C@]4(C)[C@@]3(F)[C@@H](O)C[C@@]21C [chloromethyl 9α-fluoro-11β-hydroxy-17α-isopropoxycarbonyloxy-16α-methylandrosta-1,4-dien-3-one-17β-carboxylate]
Body weight gain (thymus weight in rats; Table VIII, 10 mg/kg/day s.c.): 2.7 ± 1.9 g | Thymus wt. (thymus weight in rats; Table VIII, 10 mg/kg/day s.c.): 234 ± 31 mg | Thymus wt. Inhibition (thymus weight in rats; Table VIII, 10 mg/kg/day s.c.): 57.5%

CCCCCOC(=O)O[C@]1(C(=O)OCCl)[C@H](C)C[C@H]2[C@@H]3CCC4=CC(=O)C=C[C@]4(C)[C@@]3(F)[C@@H](O)C[C@@]21C [chloromethyl 9β-fluoro-11β-hydroxy-16α-methyl-17α-pentyloxycarbonyloxyandrosta-1,4-dien-3-one-17β-carboxylate]
Body weight gain (thymus weight in rats; Table IX, 1 mg/kg/day s.c.): 18.0 ± 1.5 g | Thymus wt. (thymus weight in rats; Table IX, 1 mg/kg/day s.c.): 387 ± 23 mg | Thymus wt. Decrease (thymus weight in rats; Table IX, 1 mg/kg/day s.c.): 9.2% | Body weight gain (thymus weight in rats; Table IX, 3 mg/kg/day s.c.): 15.6 ± 1.3 g | Thymus wt. (thymus weight in rats; Table IX, 3 mg/kg/day s.c.): 347 ± 15 mg | Thymus wt. Decrease (thymus weight in rats; Table IX, 3 mg/kg/day s.c.): 18.5% | Body weight gain (thymus weight in rats; Table IX, 10 mg/kg/day s.c.): 17.4 ± 1.5 g | Thymus wt. (thymus weight in rats; Table IX, 10 mg/kg/day s.c.): 357 ± 22 mg | Thymus wt. Decrease (thymus weight in rats; Table IX, 10 mg/kg/day s.c.): 16.2% | Body weight gain (thymus weight in rats; Table IX, 30 mg/kg/day s.c.): 13.5 ± 1.0 g | Thymus wt. (thymus weight in rats; Table IX, 30 mg/kg/day s.c.): 335 ± 17 mg | Thymus wt. Decrease (thymus weight in rats; Table IX, 30 mg/kg/day s.c.): 21.4%

CC(C)OC(=O)O[C@]1(C(=O)OCCl)[C@@H](C)C[C@H]2[C@@H]3CCC4=CC(=O)C=C[C@]4(C)[C@@]3(F)C(=O)C[C@@]21C [chloromethyl 9α-fluoro-17α-isopropoxycarbonyloxy-16β-methylandrosta-1,4-dien-3,11-dione-17β-carboxylate]
Body wt. gain ([1]; Table V-b, 1 μg/pellet): 28.9 ± 1.1 g | Dry granulation Tissue ([1]; Table V-b, 1 μg/pellet): 59.1 ± 5.8 mg | Dry granulation Tissue Inhibition ([1]; Table V-b, 1 μg/pellet): 12.1% | Thymus wt. ([1]; Table V-b, 1 μg/pellet): 441 ± 24 mg | Body wt. gain ([1]; Table V-b, 3 μg/pellet): 25.8 ± 0.9 g | Dry granulation Tissue ([1]; Table V-b, 3 μg/pellet): 49.4 ± 3.7 mg | Dry granulation Tissue Inhibition ([1]; Table V-b, 3 μg/pellet): 26.5% | Thymus wt. ([1]; Table V-b, 3 μg/pellet): 519 ± 31 mg | Body wt. gain ([1]; Table V-b, 10 μg/pellet): 28.4 ± 0.8 g | Dry granulation Tissue ([1]; Table V-b, 10 μg/pellet): 51.1 ± 5.8 mg | Dry granulation Tissue Inhibition ([1]; Table V-b, 10 μg/pellet): 24.0% | Thymus wt. ([1]; Table V-b, 10 μg/pellet): 547 ± 35 mg | Body wt. gain ([1]; Table V-b, 30 μg/pellet): 27.4 ± 0.9 g | Dry granulation Tissue ([1]; Table V-b, 30 μg/pellet): 40.6 ± 3.6 mg | Dry granulation Tissue Inhibition ([1]; Table V-b, 30 μg/pellet): 39.6% | Thymus wt. ([1]; Table V-b, 30 μg/pellet): 536 ± 24 mg
